Test results as given in patent US7485651B2, “Compounds with activity on muscarinic receptors” (Acadia Pharmaceuticals, Inc., priority 1998, dated 2009).

Legend:
m1 receptor = target: T1, m1 receptor (Homo sapiens, UniProt P11229); assay: R-SAT / NIH 3T3 cells transfected with m1 muscarinic receptor; format: cell-based
T1 construct: expressed in transfected cells; host or cells: NIH 3T3 (ATCC CRL 1658)
T1 sequence (P11229 1-460): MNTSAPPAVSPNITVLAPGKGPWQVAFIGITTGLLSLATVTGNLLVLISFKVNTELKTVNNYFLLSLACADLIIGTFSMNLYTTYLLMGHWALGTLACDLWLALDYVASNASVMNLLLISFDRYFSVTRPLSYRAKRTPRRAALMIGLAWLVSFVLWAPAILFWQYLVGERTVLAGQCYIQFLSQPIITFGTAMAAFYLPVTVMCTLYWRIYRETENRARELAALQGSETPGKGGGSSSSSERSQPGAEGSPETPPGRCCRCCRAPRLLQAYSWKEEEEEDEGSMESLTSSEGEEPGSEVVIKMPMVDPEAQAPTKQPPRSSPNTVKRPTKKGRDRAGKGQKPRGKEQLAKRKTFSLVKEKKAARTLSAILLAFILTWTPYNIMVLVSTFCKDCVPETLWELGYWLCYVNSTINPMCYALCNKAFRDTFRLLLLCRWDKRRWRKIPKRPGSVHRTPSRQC
Experimental: Cell amplification is detected as increased levels of a marker also expressed by the cells.
The cells were treated with trypsin-EDTA, spun down and plated at 2×10^6 per 15 cm dish in 20 m1 of DMEM containing 10% calf serum.
On day one, the cells were transfected using the Superfect transfection reagent (available from Qiagen, Valencia, Calif.) in accordance with the manufacturer's instructions. Receptor DNA, β-gal DNA (pSI-β-galactosidase available from Promega, Madison, Wis.), chimeric Gq-i5 DNA for the m2 and m4 receptor subtype assays, and salmon sperm DNA (available from Sigma, St. Louis, […].) as filler to a total of 20 μg DNA was added per plate. Prior to addition to the plates, 60 μl Superfect was added to the DNA and mixed thoroughly by pipetting up and down several times. The mixture was incubated at room temperature for 10-15 minutes. The media were aspirated, and 12 ml fresh DMEM containing 10% calf serum and 50 units/m1 penicillin/streptomycin was added to the plates. The DNA-Superfect solution was mixed once more with a pipette and added to the plate which was swirled to distribute the DNA mixture evenly over the surface. The cells were incubated overnight at 37° C. and 5% CO2. After incubation, the media were aspirated and the plates were rinsed once with a 15 m1 volume of Hank's Buffered Saline. The plates were swirled to ensure thorough rinsing. 20 m1 fresh DMEM supplemented with 10% calf serum and 50 units/m1 penicillin/streptomycin was added to the plates. The cells were incubated for 24-48 hours until the plates were 100% confluent.
Assay of NIH 3T3 cells transfected with muscarinic receptor subtypes (general procedure) DMEM containing 2% Cyto-SF3 was heated at 37° C. in a water bath under sterile conditions. Sterile working stock solutions of test compounds to be assayed were prepared by diluting the compounds in DMEM to 8× the final concentration for testing. The compound (carbachol) to be included in the assay as a positive control was also diluted in DMEM to 8× the final concentration. 50 μL of the DMEM containing 2% Cyto-SF3 was added to each well of 96-well microtiter plates under sterile conditions. Then, 16 of compound solutions were added to the top wells of the plates, and dilution of the solutions was performed by taking 16 μl of the compound solutions from the top wells and pipetting them into the next row of wells. This procedure was repeated with each subsequent row of wells, except that 50 μl medium alone was added to the baseline control wells (the wells that contain medium and cells, but not test compounds) and plate control wells (wells containing medium, but not test compounds and cells). The plates were then placed in an incubator at 37° C. to equilibrate temperature and pH.
When the cell cultures had reached 100% confluence, the medium was aspirated and each plate was rinsed with 15 m1 Hank's Buffered Saline (HBS). The cells were left in the incubator for about 10-15 minutes until the HBS had turned slightly yellow. The HBS was then aspirated and 1 m1 trypsin was added to each plate and swirled so as to completely cover the plates. The edges of the plates were gently rapped several times to loosen the cells. After the cells had been dislodged from the surface, 8 m1 DMEM containing 10% calf serum and 50 units/m1 penicillin and 50 units/m1 streptomycin was added to inhibit the trypsin. The plates were rinsed with this medium, and the cells were pipetted into a tube. The cells were centrifuged at 1000 rpm for 5-10 min. in an IEC Centra CL2 centrifuge (produced by Sorvall). Afterwards, the medium was carefully aspirated so as not to dislodge the cells. The cell pellet was suspended in 1600 μl DMEM containing 10% calf serum and 50 units/m1 penicillin and 50 units/m1 streptomycin, after which 20 m1 DMEM supplemented with 2% Cyto-SF3 was added. 50 μl aliquots of this cell suspension was added to the wells of the 96-well microtiter plates prepared above (except for the plate control wells).

[1] = target: T2, α-adrenergic receptor subtype 2C (Homo sapiens, UniProt P18825); assay: Test against other receptors: α-adrenergic 2C; format: cell-based
T2 sequence (P18825 1-462): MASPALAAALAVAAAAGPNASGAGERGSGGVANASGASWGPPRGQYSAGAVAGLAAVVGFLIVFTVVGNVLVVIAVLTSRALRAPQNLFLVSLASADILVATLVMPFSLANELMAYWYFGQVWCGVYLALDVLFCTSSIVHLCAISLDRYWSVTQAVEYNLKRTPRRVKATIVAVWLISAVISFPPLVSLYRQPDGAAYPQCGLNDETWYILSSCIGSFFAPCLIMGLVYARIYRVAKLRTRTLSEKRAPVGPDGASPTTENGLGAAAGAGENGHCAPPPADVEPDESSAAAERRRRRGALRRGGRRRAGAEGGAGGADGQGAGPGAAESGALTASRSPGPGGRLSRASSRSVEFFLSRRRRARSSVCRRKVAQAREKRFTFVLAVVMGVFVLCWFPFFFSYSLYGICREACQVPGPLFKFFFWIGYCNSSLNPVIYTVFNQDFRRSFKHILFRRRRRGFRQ

CCCCC1CCN(CCCC(=O)c2ccccc2C)CC1 [Compound A, 4-n-Butyl-1-[4-(2-methylphenyl)-4-oxo-1-butyl]piperidine]
Emax at 1.5 µM (m1 receptor; NIH3T3, m1, compound at 1.5 μM, maximum = response to 10 μM carbachol, read-out: Cellular response as a percentage of the maximum response of the cells): 107% | antagonism of carbachol-induced responses (m1 receptor; m1): not an antagonist | maximal response relative to reference compound carbachol (m1 receptor; m1 receptor): lower maximal response than the reference compound carbachol | agonist activity at the m1 receptor (m1 receptor; receptor transfected into separate cell cultures): potent partial agonist | agonist activity [1]: no significant activity | inhibition of receptor responses (antagonist experiments) [1]: did not inhibit
